What was measured:
[1] = Lipophilicity logD7.4 by HPLC method; assay type: physicochemical; settings: HPLC retention on ODP-50 4B column (Shodex Asahipak), phosphate buffer pH 7.4
Procedure: The lipophilicity of all synthesized compounds was determined as logD7.4, HPLC value by an HPLC method originally described by Donovan and Pescatore.
The logD7.4HPLC value was determined as previously reported by us utilizing an HPLC method originally described by Donovan and Pescatore.

[2] = Fluorometric NO release assay (Griess assay); assay type: physicochemical; settings: 24 h, 37 °C, relative to initial molar amount of compound; for thiol-dependent NO release: 2.5 mM cysteine; for spontaneous NO release: absence of cysteine
Procedure: The nitric oxide releasing properties of the nitroester-derivatives 5a–d, 5f, and 6a–d were evaluated using a fluorometric Griess assay in the presence and absence of cysteine to determine thiol-dependent and spontaneous release of nitric oxide (Figure 3).
Nitric oxide release of compounds within 24 h at 37 °C was measured using the fluorometric nitric oxide microplate assay kit ab65327 (Abcam, Cambridge, UK). For measurement of spontaneous release, 1.8 nmol of compounds were incubated in 75 µL Dulbecco’s PBS containing 0.05% v/v residual DMSO and 2.5 mM DTPA (pH = 7.1) for 24 h at 37 °C. Thiol-dependent release was measured accordingly in presence of 2.5 mM cysteine. Two series of nitrate standards were prepared (0.2−1 nmol) in 75 µL incubation buffer, in presence or absence of cysteine, respectively. According to the manufacturer’s instructions, all nitrate content in samples and standards was enzymatically converted into nitrite through incubation with nitrate reductase for 2 h at room temperature, and the resulting nitrite content (total nitric oxide) was determined through reaction with 2,3-diaminonaphthalene followed by measurement of fluorescence intensity at λex/em = 360/450 nm using a microplate reader. Nitrite content in samples was calculated from linear regression of standards and expressed as relative nitric oxide release (%) normalized to the initial molar amount of compound. NONOate served as positive control.
Figure 3 Spontaneous and thiol-dependent NO^• release from NO-COXIBs; measured using fluorometric Griess assay (n = 2); relative release indicates the percentage of soluble nitrogen species (nitrate + nitrite) detected in the incubation buffer after 24 h compared to the initial molar amount of compounds; NO^• release of NONOate (positive control) exceeded the maximum detection limit; data presented as mean ± range.

purified ovine COX-1 = target: T1, purified ovine COX-1 (Ovis aries, UniProt P05979); experiment: COX Fluorescent Inhibitor Screening Assay, COX-1; assay type: biochemical
T1 construct: purchased Cayman Chemical 700100
T1 sequence (P05979 25-600): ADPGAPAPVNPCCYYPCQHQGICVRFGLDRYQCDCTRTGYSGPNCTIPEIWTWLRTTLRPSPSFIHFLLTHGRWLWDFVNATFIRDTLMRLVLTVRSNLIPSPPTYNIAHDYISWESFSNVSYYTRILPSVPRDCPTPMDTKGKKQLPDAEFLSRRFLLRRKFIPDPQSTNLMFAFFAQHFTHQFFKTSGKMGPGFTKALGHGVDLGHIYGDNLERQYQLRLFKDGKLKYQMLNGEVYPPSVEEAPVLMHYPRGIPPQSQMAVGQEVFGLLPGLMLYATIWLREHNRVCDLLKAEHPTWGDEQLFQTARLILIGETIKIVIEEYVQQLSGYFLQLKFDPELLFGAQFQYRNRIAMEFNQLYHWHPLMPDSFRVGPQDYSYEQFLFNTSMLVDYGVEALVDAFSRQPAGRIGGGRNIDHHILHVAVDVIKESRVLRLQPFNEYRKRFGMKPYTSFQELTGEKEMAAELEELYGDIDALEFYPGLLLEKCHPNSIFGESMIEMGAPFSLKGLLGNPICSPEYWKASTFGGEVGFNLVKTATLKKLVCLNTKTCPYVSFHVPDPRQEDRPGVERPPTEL
Procedure: COX inhibition (Table 1) was evaluated in vitro using purified ovine COX-1 and recombinant human COX-2 enzyme in a commercially available “COX Fluorescent Inhibitor Screening Assay KIT” (item no. 700100, Cayman Chemical, Ann Arbor, MI, USA). Celecoxib served as a reference and inhibition data concerning 4a, 4e, 5a and 5e were previously reported by us and is herein discussed for comparison.
COX inhibition activity against ovine COX-1 and human COX-2 was determined using the fluorescence-based COX assay “COX Fluorescent Inhibitor Screening Assay Kit” (catalog number 700100; Cayman Chemical, Ann Arbor, MI, USA) according to the manufacturer’s instructions. Compounds 6a–d were screened at a concentration of 100 µM, all others were assayed in a concentration range of 0.1 nM to 100 μM in duplicate.

[3] = screened at a concentration of 100 µM

For `COc1ccc(-c2cc(CO[N+](=O)[O-])nn2-c2ccc(S(N)(=O)=O)cc2)cc1` [5f, [5-(4-Methoxyphenyl)-1-(4-sulfamoylphenyl)-1H-pyrazol-3-yl]methyl nitrate], the chromatographic logD [1] was 3.32, the “thiol-dependent NO release” value [2] was 29–53% and the “spontaneous NO release” value [2] was 10–22%. For the same compound, the IC50 (purified ovine COX-1; 0.1 nM to 100 µM in duplicate) was > 100 µM.

With `CCC(=O)NS(=O)(=O)c1ccc(-n2nc(CO[N+](=O)[O-])cc2-c2ccc(OC)cc2)cc1` [6d, {5-(4-Methoxyphenyl)-1-[4-(N-propionylsulfamoyl)phenyl]-1H-pyrazol-3-yl}methyl nitrate] the chromatographic logD [1] was 1.55, the “thiol-dependent NO release” value [2] was 65% and the “spontaneous NO release” value [2] was 40%. The IC50 (purified ovine COX-1; [3]) was > 100 µM.

In the case of `CCC(=O)NS(=O)(=O)c1ccc(-n2nc(CO[N+](=O)[O-])c(Cl)c2-c2ccc(OC)cc2)cc1` [6b, {4-Chloro-5-(4-methoxyphenyl)-1-[4-(N-propionylsulfamoyl)phenyl]-1H-pyrazol-3-yl}methyl nitrate], the chromatographic logD [1] is reported as 2.1, the “thiol-dependent NO release” value [2] is reported as 56% and the “spontaneous NO release” value [2] is reported as “no detectable”. The IC50 (purified ovine COX-1; [3]) was ~100 µM.

In the case of `CCC(=O)NS(=O)(=O)c1ccc(-n2nc(CO[N+](=O)[O-])cc2-c2ccc(C)cc2)cc1` [6c, {1-[4-(N-Propionylsulfamoyl)phenyl]-5-(p-tolyl)-1H-pyrazol-3-yl}methyl nitrate], the chromatographic logD [1] is reported as 1.82, the “thiol-dependent NO release” value [2] is reported as 40% and the “spontaneous NO release” value [2] is reported as 26%. For the same compound, the IC50 (purified ovine COX-1; [3]) was > 100 µM.

In the case of `COc1ccc(-c2c(Cl)c(CO[N+](=O)[O-])nn2-c2ccc(S(C)(=O)=O)cc2)cc1` [5d, {4-Chloro-5-(4-methoxyphenyl)-1-[4-(methylsulfonyl)phenyl]-1H-pyrazol-3-yl}methyl nitrate], the chromatographic logD [1] is reported as 4.02, the “thiol-dependent NO release” value [2] is reported as 29–53% and the “spontaneous NO release” value [2] is reported as 10–22%. The IC50 (purified ovine COX-1; 0.1 nM to 100 µM in duplicate) was > 100 µM.

For `Cc1ccc(-c2c(Cl)c(CO[N+](=O)[O-])nn2-c2ccc(S(C)(=O)=O)cc2)cc1` [5c, {4-Chloro-1-[4-(methylsulfonyl)phenyl]-5-(p-tolyl)-1H-pyrazol-3-yl}methyl nitrate], the chromatographic logD [1] was 4.04, the “thiol-dependent NO release” value [2] was 17% and the “spontaneous NO release” value [2] was “no detectable”. For the same compound, the IC50 (purified ovine COX-1; 0.1 nM to 100 µM in duplicate) was > 100 µM.

For `CCC(=O)NS(=O)(=O)c1ccc(-n2nc(CO[N+](=O)[O-])c(Cl)c2-c2ccc(C)cc2)cc1` [6a, {4-Chloro-1-[4-(N-propionylsulfamoyl)phenyl]-5-(p-tolyl)-1H-pyrazol-3-yl}methyl nitrate], the chromatographic logD [1] was 2.27, the “thiol-dependent NO release” value [2] was 29–53% and the “spontaneous NO release” value [2] was 10–22%. For the same compound, the IC50 (purified ovine COX-1; [3]) was > 100 µM.
